Structures are written as SMILES. Where a name gives a salt, the structure may show the parent alone.

In one test the test system is Acinetobacter baumannii ATCC17961. Put plainly: Antimicrobial susceptibility testing: 90% growth inhibitory concentration (IC90) determination. In kind it is cell-based. The settings on record: 90% growth inhibitory concentration, Acinetobacter baumannii ATCC17961, Iso-Sensitest broth, OD 600 nm over 16 h; formate; read-out: ATCC 17961 IC90. As for the experimental part:
Assay Procedures Antimicrobial Susceptibility Testing: 90% Growth Inhibitory Concentration (IC90) Determination
The in vitro antimicrobial activity of the compounds was determined according to the following procedure:
The assay used a 10-points Iso-Sensitest broth medium to measure quantitatively the in vitro activity of the compounds against Acinetobacter baumannii ATCC17961.
Stock compounds in DMSO were serially twofold diluted (e.g. range from 50 to 0.097 μM final concentration) in 384 wells microtiter plates and inoculated with 49 μl the bacterial suspension in Iso-Sensitest medium to have a final cell concentration of ˜5×10^(5) CFU/ml in a final volume/well of 50 ul/well. Microtiter plates were incubated at 35±2° C.
Bacterial cell growth was determined with the measurement of optical density at λ=600 nm each 20 minutes over a time course of 16h. Growth inhibition was calculated during the logarithmic growth of the bacterial cells with determination of the concentration inhibiting 50% (IC50) and 90% (IC90) of the growth.
Table 1 provides the 90% growth inhibitory concentrations (IC90) in micromoles per liter of the compounds of present invention obtained against the strain Acinetobacter baumannii ATCC17961.
In the case of `COCCn1cc(-c2ccc(-c3cnc(C(=O)Nc4ccc(C(=O)N5CCN(C(=O)C6CC[N+](C)(CC(N)=O)CC6)CC5)c(Cl)c4)n3C)c(F)c2F)c(C)n1` (stereo not shown) [Example B3, N-[4-[4-[1-(2-amino-2-oxo-ethyl)-1-methyl-piperidin-1-ium-4-carbonyl]piperazine-1-carbonyl]-3-chloro-phenyl]-5-[2,3-difluoro-4-[1-(2-methoxyethyl)-3-methyl-pyrazol-4-yl]phenyl]-1-methyl-imidazole-2-carboxamide; formate], the IC90 was found to be 130 nM.

The same test, now with this note: Acinetobacter baumannii, ATCC17961, 16 h, 90% growth inhibitory concentration, Acinetobacter baumannii ATCC17961, Iso-Sensitest broth, OD 600 nm over 16 h; read-out: ATCC 17961 IC90.
Consider `Cc1c(-c2ccc(-c3cnc(C(=O)Nc4ccc(C(=O)N5CCN(C(=O)[C@@H]6C[C@@H](O)C[N+]6(C)C)CC5)c(Cl)c4)n3C)c(F)c2F)cnn1CCCO` [Example F17, N-[3-chloro-4-[4-[(2S,4R)-4-hydroxy-1,1-dimethyl-pyrrolidin-1-ium-2-carbonyl]piperazine-1-carbonyl]phenyl]-5-[2,3-difluoro-4-[1-(3-hydroxypropyl)-5-methyl-pyrazol-4-yl]phenyl]-1-methyl-imidazole-2-carboxamide; formate], for which the IC90 is 270 nM.
As to `COCCn1cc(-c2ccc(-c3cnc(C(=O)Nc4ccc(C(=O)N5CCN(C(=O)CC6(O)CC[N+](C)(C)CC6)CC5)c(Cl)c4)n3C)c(F)c2F)c(C)n1` [Example D17, N-[3-chloro-4-[4-[2-(4-hydroxy-1,1-dimethyl-piperidin-1-ium-4-yl)acetyl]piperazine-1-carbonyl]phenyl]-5-[2,3-difluoro-4-[1-(2-methoxyethyl)-3-methyl-pyrazol-4-yl]phenyl]-1-methyl-imidazole-2-carboxamide; formate], the IC90 was determined as 260 nM.
Same read-out and setting: the value for `Cc1n[nH]cc1-c1ccc(-c2cnc(C(=O)Nc3ccc(C(=O)N4CCN(C(=O)CN(C)C)CC4)c(Cl)c3)n2C)cc1` [Example E15, N-[3-chloro-4-[4-[2-(dimethylamino)acetyl]piperazine-1-carbonyl]phenyl]-1-methyl-5-[4-(3-methyl-1H-pyrazol-4-yl)phenyl]imidazole-2-carboxamide; formic acid] was 180 nM.
Consider `COCCn1ncc(-c2ccc(-c3cnc(C(=O)Nc4ccc(C(=O)N5CCN(C(=O)C6CC[N+](C)(C)CC6)CC5)c(Cl)c4)n3C)c(OC)c2F)c1C` [Example F23, N-[3-chloro-4-[4-(1,1-dimethylpiperidin-1-ium-4-carbonyl)piperazine-1-carbonyl]phenyl]-5-[3-fluoro-2-methoxy-4-[1-(2-methoxyethyl)-5-methyl-pyrazol-4-yl]phenyl]-1-methyl-imidazole-2-carboxamide; formate], for which the IC90 came out at 750 nM.
Same read-out and setting: then `Cn1c(-c2ccc(-c3cn(CCC(N)=O)nc3C(F)(F)F)c(F)c2F)cnc1C(=O)Nc1ccc(C(=O)N2CCN(C(=O)C3CC[N+](C)(C)CC3)CC2)c(Cl)c1` [Example F1, 5-[4-[1-(3-amino-3-oxo-propyl)-3-(trifluoromethyl)pyrazol-4-yl]-2,3-difluoro-phenyl]-N-[3-chloro-4-[4-(1,1-dimethylpiperidin-1-ium-4-carbonyl)piperazine-1-carbonyl]phenyl]-1-methyl-imidazole-2-carboxamide; formate], with 330 nM.
Same read-out and setting: the value for `COCCn1nc(C)c(-c2ccc(-c3cnc(C(=O)Nc4ccc(C(=O)N[C@H]5[C@@H]6CN(C(=O)[C@@H]7C[C@@H](O)C[N+]7(C)C)C[C@@H]65)c(Cl)c4)n3C)c(F)c2F)c1C` [Example D38, N-[3-chloro-4-[[(1R,5S)-3-[(2S,4R)-4-hydroxy-1,1-dimethyl-pyrrolidin-1-ium-2-carbonyl]-3-azabicyclo[3.10]hexan-6-yl]carbamoyl]phenyl]-5-[2,3-difluoro-4-[1-(2-methoxyethyl)-3,5-dimethyl-pyrazol-4-yl]phenyl]-1-methyl-imidazole-2-carboxamide; formate] was 150 nM; that for `Cc1nn(CC(=O)NC2CCCCC2)cc1-c1ccc(-c2cnc(C(=O)Nc3ccc(C(=O)N4CCN(C(=O)C5CC[N+](C)(C)CC5)CC4)c(Cl)c3)n2C)c(F)c1F` [Example G9, N-[3-chloro-4-[4-(1,1-dimethylpiperidin-1-ium-4-carbonyl)piperazine-1-carbonyl]phenyl]-5-[4-[1-[2-(cyclohexylamino)-2-oxo-ethyl]-3-methyl-pyrazol-4-yl]-2,3-difluoro-phenyl]-1-methyl-imidazole-2-carboxamide; formate] was 210 nM.
Same read-out and setting: the value for `COCCn1ncc(-c2ccc(-c3cnc(C(=O)Nc4ccc(C(=O)N5CCN(C(=O)C6CCNCC6)CC5)c(Cl)c4)n3C)c(F)c2F)c1COC` [Example E13, N-[3-chloro-4-[4-(piperidine-4-carbonyl)piperazine-1-carbonyl]phenyl]-5-[2,3-difluoro-4-[1-(2-methoxyethyl)-5-(methoxymethyl)pyrazol-4-yl]phenyl]-1-methyl-imidazole-2-carboxamide; formic acid] was 380 nM.

Still in this test, the particulars now being: Acinetobacter baumannii, ATCC17961, 16 h, read-out: ATCC 17961 IC90.
In the case of `COCCn1ncc(-c2ccc(-c3cnc(C(=O)Nc4ccc(C(=O)N5CCC(N(C)C(=O)C6CC[N+](CC(=O)O)(CC7CNC7)CC6)CC5)c(Cl)c4)n3C)c(F)c2F)c1C` (stereo not shown) [Example O1, 2-[1-(azetidin-3-ylmethyl)-4-[[1-[2-chloro-4-[[5-[2,3-difluoro-4-[1-(2-methoxyethyl)-5-methyl-pyrazol-4-yl]phenyl]-1-methyl-imidazole-2-carbonyl]amino]benzoyl]-4-piperidyl]-methyl-carbamoyl]piperidin-1-ium-1-yl]acetic acid formate], the IC90 stood at 354 nM.
The same measure, in the same setting: then `COCCn1nc(C)c(-c2ccc(-c3cnc(C(=O)Nc4ccc(C(=O)N5CCN(C(=O)C6CC[N+](C)(CC(N)=O)CC6)CC5)c(Cl)c4)n3C)cc2)c1C` (stereo not shown) [Example B10, N-[4-[4-[1-(2-amino-2-oxo-ethyl)-1-methyl-piperidin-1-ium-4-carbonyl]piperazine-1-carbonyl]-3-chloro-phenyl]-5-[4-[1-(2-methoxyethyl)-3,5-dimethyl-pyrazol-4-yl]phenyl]-1-methyl-imidazole-2-carboxamide; formate], with 200 nM; and `Cc1n[nH]cc1-c1ccc(-c2cnc(C(=O)Nc3ccc(C(=O)N4CCN(C(=O)C5CCC[N+]5(C)CCO)CC4)c(Cl)c3)n2C)c(F)c1F` (stereo not shown) [Example B35, N-[3-chloro-4-[4-[1-(2-hydroxyethyl)-1-methyl-pyrrolidin-1-ium-2-carbonyl]piperazine-1-carbonyl]phenyl]-5-[2,3-difluoro-4-(3-methyl-1H-pyrazol-4-yl)phenyl]-1-methyl-imidazole-2-carboxamide; 2,2,2-trifluoroacetate], with 130 nM; and `Cc1n[nH]cc1-c1ccc(-c2cnc(C(=O)Nc3ccc(C(=O)N4CCN(C(=O)[C@@H]5C[C@@H](O)C[N+]5(C)CCO)CC4)c(Cl)c3)n2C)c(F)c1F` (stereo partly drawn) [Example B36, N-[3-chloro-4-[4-[(2S,4R)-4-hydroxy-1-(2-hydroxyethyl)-1-methyl-pyrrolidin-1-ium-2-carbonyl]piperazine-1-carbonyl]phenyl]-5-[2,3-difluoro-4-(3-methyl-1H-pyrazol-4-yl)phenyl]-1-methyl-imidazole-2-carboxamide; 2,2,2-trifluoroacetate], with 110 nM.

(Values after US12421211B2, “Heterocyclic compounds” (Hoffmann-La Roche Inc., priority 2021, dated 2025).)
